According to PubChem BioAssay AID330 (DTP/NCI, 2004):
Values joined by “and” are separate entries in the source; they are usually repeats but may differ in a detail not shown here. Equal entries are not always repeated. Toxic doses and inconclusive results are not listed. Rule for the calls: active = survival T/C of 150% or more; inactive = T/C below 125% in these data. Peptide text beside a SMILES is read from it.

Test system: P388 leukemia ip, CD2F1 mice, survival T/C
Test: NCI In Vivo Anticancer Drug Screen. Data for tumor model P388 Leukemia (intraperitoneal) in CD2F1 (CDF1) mice
Conditions: endpoint: median survival time, higher = longer survival
Procedure, shortened: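 Mice carrying the transplanted tumor received test compound or vehicle. Survival was recorded in each group, and the value is the treated-group measurement divided by that of the vehicle-treated control group.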

[1] = dose: 50.0 mg/kg/injection, schedule: Q01DX005 (ip), vehicle: Klucel (hydroxypropylcellulose) (HPC)
[2] = dose: 50.0 mg/kg/injection, schedule: Q01DX005 (ip), vehicle: saline with Tween-80
[3] = dose: 100.0 mg/kg/injection, schedule: Q01DX005 (ip), vehicle: saline with Tween-80
[4] = dose: 200.0 mg/kg/injection, schedule: Q01DX005 (ip), vehicle: saline with Tween-80
[5] = dose: 100.0 mg/kg/injection, schedule: Q01DX005 (ip), vehicle: Klucel (hydroxypropylcellulose) (HPC)
[6] = dose: 200.0 mg/kg/injection, schedule: Q01DX005 (ip), vehicle: Klucel (hydroxypropylcellulose) (HPC)
[7] = dose: 100.0 mg/kg/injection, schedule: Q04DX003 (ip), vehicle: saline with Tween-80
[8] = dose: 200.0 mg/kg/injection, schedule: Q04DX003 (ip), vehicle: saline with Tween-80
[9] = dose: 25.0 mg/kg/injection, schedule: Q04DX002 (ip), vehicle: saline with Tween-80
[10] = dose: 50.0 mg/kg/injection, schedule: Q04DX002 (ip), vehicle: saline with Tween-80
[11] = dose: 100.0 mg/kg/injection, schedule: Q04DX002 (ip), vehicle: saline with Tween-80

Measured: T/C

Cc1cc(OC(=O)Nc2ccc(Cl)c([N+](=O)[O-])c2)c(Cl)cc1Br
inactive: dose: 50.0 mg/kg/injection, schedule: Q01DX009 (ip), vehicle: saline + alcohol 100 % of control | dose: 100.0 mg/kg/injection, schedule: Q01DX009 (ip), vehicle: saline + alcohol 105 % of control | dose: 200.0 mg/kg/injection, schedule: Q01DX009 (ip), vehicle: saline + alcohol 88 % of control

CC(=O)OC1(C)C(=O)OC/C2=C/CN(C)CCC(OC(=O)C(O)(C(C)Cl)CC1C)C2=O (stereo not given)
inactive: dose: 12.5 mg/kg/injection, schedule: Q01DX005 (ip), vehicle: Klucel (hydroxypropylcellulose) (HPC) 103 % of control | dose: 25.0 mg/kg/injection, schedule: Q01DX005 (ip), vehicle: Klucel (hydroxypropylcellulose) (HPC) 100 % of control | [1] 99 % of control and 103 % of control

C/C1=C2N=C(/C=C3N=C(/C(C)=C4\[N-]C(C(CC(N)=O)C4(C)CCC(=O)NCC(C)OP(=O)(O)OC4C(CO)OC(n5cnc6cc(C)c(C)cc65)C4O)C4(C)N=C1C(CCC(N)=O)C4(C)CC(N)=O)C(CCC(N)=O)C\3(C)C)C(CCC(N)=O)C/2(C)CC(N)=O.[CH2-]CC.[Co+2] (stereo not given)
inactive: dose: 76.1 micrograms/kg/injection, schedule: Q#A X Z (ip), vehicle: water 88 % of control | dose: 7610.0 micrograms/kg/injection, schedule: Q#A X Z (ip), vehicle: water 99 % of control

O=C1C(S(=O)(=O)O)=CC(=Nc2ccc(O)cc2)c2ccccc21
inactive: [2] 95 % of control | [3] 107 % of control | [4] 102 % of control

CC(O)C(N)C(=O)NC(Cc1ccccc1)C(N)=O (stereo not drawn) (H-Thr-Phe-NH2; configuration not given here)
inactive: [2] 101 % of control | [3] 100 % of control | [4] 103 % of control

Cc1ccc(S(=O)(=O)/N=C2\CCN(S(=O)(=O)c3ccc(C)cc3)N2S(=O)(=O)c2ccc(C)cc2)cc1
inactive: [1] 97 % of control | [5] 94 % of control | [6] 97 % of control

CS(=O)(=O)N1OC1c1ccccc1 (stereo not given)
inactive: dose: 60.0 mg/kg/injection, schedule: Q01DX005 (ip), vehicle: Klucel (hydroxypropylcellulose) (HPC) 95 % of control | dose: 120.0 mg/kg/injection, schedule: Q01DX005 (ip), vehicle: Klucel (hydroxypropylcellulose) (HPC) 100 % of control

CCCCCCC[n+]1ccccc1C#N
inactive: dose: 12.5 mg/kg/injection, schedule: Q04DX003 (ip), vehicle: saline with Tween-80 103 % of control and 107 % of control | dose: 25.0 mg/kg/injection, schedule: Q04DX003 (ip), vehicle: saline with Tween-80 100 % of control and 103 % of control | dose: 50.0 mg/kg/injection, schedule: Q04DX003 (ip), vehicle: saline with Tween-80 103 % of control | [7] 100 % of control and 118 % of control | [8] 99 % of control

[Cl][Pt+2][Cl].[NH-]c1ccc(C(=O)O)cc1[NH-]
inactive: dose: 6.25 mg/kg/injection, schedule: Q04DX002 (ip), vehicle: saline with Tween-80 100 % of control | dose: 12.5 mg/kg/injection, schedule: Q04DX002 (ip), vehicle: saline with Tween-80 102 % of control | [9] 100 % of control | [10] 110 % of control | [11] 120 % of control

COC(=O)c1ccccc1NC(=O)Nc1ncccn1
inactive: dose: 50.0 mg/kg/injection, schedule: Q01DX009 (ip), vehicle: Klucel (hydroxypropylcellulose) (HPC) 100 % of control | dose: 100.0 mg/kg/injection, schedule: Q01DX009 (ip), vehicle: Klucel (hydroxypropylcellulose) (HPC) 100 % of control | dose: 200.0 mg/kg/injection, schedule: Q01DX009 (ip), vehicle: Klucel (hydroxypropylcellulose) (HPC) 96 % of control

S=C(Nc1ccc(N=Nc2ccccc2)cc1)SCc1ccc2c(c1)OCO2
inactive: dose: 50.0 mg/kg/injection, schedule: Q01DX009 (ip), vehicle: suspension in saline 96 % of control | dose: 100.0 mg/kg/injection, schedule: Q01DX009 (ip), vehicle: suspension in saline 90 % of control | dose: 200.0 mg/kg/injection, schedule: Q01DX009 (ip), vehicle: suspension in saline 92 % of control

CC(=O)Nc1ccc(S(=O)(=O)n2c(=O)oc3ccc(Br)cc32)cc1
inactive: [1] 98 % of control | [5] 100 % of control | [6] 99 % of control

Cc1cc(NCCCCCCNc2cc(C)[n+](C)c3ccccc23)c2ccccc2[n+]1C
inactive: dose: 3.12 mg/kg/injection, schedule: Q01DX005 (ip), vehicle: suspension in saline 101 % of control | dose: 6.25 mg/kg/injection, schedule: Q01DX005 (ip), vehicle: suspension in saline 106 % of control | dose: 12.5 mg/kg/injection, schedule: Q01DX005 (ip), vehicle: suspension in saline 115 % of control

CC1CC2(CC(CN(C3CCCCC3)C3CCCCC3)OC2=O)C(=O)O1 (stereo not given)
inactive: [2] 104 % of control | [3] 102 % of control | [4] 96 % of control

OC(c1cc(-c2ccccc2)nc2c1ccc1ccccc12)C1CCCCN1 (stereo not given)
inactive: dose: 12.5 mg/kg/injection, schedule: Q01DX005 (ip), vehicle: saline with Tween-80 101 % of control | dose: 25.0 mg/kg/injection, schedule: Q01DX005 (ip), vehicle: saline with Tween-80 97 % of control | [2] 100 % of control | [3] 100 % of control | [4] 107 % of control

CCCCS(=N)(=O)CCC(N)P(=O)(O)O (stereo not given)
inactive: dose: 50.0 mg/kg/injection, schedule: Q01DX005 (ip), vehicle: saline 93 % of control | dose: 100.0 mg/kg/injection, schedule: Q01DX005 (ip), vehicle: saline 100 % of control | dose: 200.0 mg/kg/injection, schedule: Q01DX005 (ip), vehicle: saline 95 % of control

Cc1ccc2nc3[nH]c(=O)[nH]c(=O)c3c(N)c2c1
inactive: [1] 101 % of control | [5] 104 % of control | [6] 102 % of control

c1ccc2c(c1)Nc1ccncc1S2
inactive: dose: 100.0 mg/kg/injection, schedule: Q01DX009 (ip), vehicle: saline with Tween-80 100 % of control | [7] 100 % of control | dose: 200.0 mg/kg/injection, schedule: Q01DX009 (ip), vehicle: saline with Tween-80 100 % of control | [8] 100 % of control | dose: 400.0 mg/kg/injection, schedule: Q01DX009 (ip), vehicle: saline with Tween-80 100 % of control

O=C(O)C(CCCCNC(=S)S)NC(=S)S.[Zn+2] (stereo not given)
inactive: [1] 95 % of control | [5] 95 % of control

C=CCOc1cc2c(cc1Cc1cc(OC)c(OC)c(OC)c1)OCO2
inactive: dose: 60.0 mg/kg/injection, schedule: Q01DX005 (ip), vehicle: saline 100 % of control | dose: 120.0 mg/kg/injection, schedule: Q01DX005 (ip), vehicle: saline 99 % of control

COc1cc2c(c(OC)c1OC)-c1cc3c(cc1CC1COC(=O)C1C2)OCO3 (stereo not given)
inactive: dose: 2.5 mg/kg/injection, schedule: Q04DX002 (ip), vehicle: saline with Tween-80 97 % of control and 96 % of control and 102 % of control | dose: 5.0 mg/kg/injection, schedule: Q04DX002 (ip), vehicle: saline with Tween-80 95 % of control [middle of 6 runs] | dose: 10.0 mg/kg/injection, schedule: Q04DX002 (ip), vehicle: saline with Tween-80 101 % of control [middle of 6 runs] | dose: 12.5 mg/kg/injection, schedule: Q01DX009 (ip), vehicle: saline with Tween-80 100 % of control | dose: 20.0 mg/kg/injection, schedule: Q04DX002 (ip), vehicle: saline with Tween-80 96 % of control and 104 % of control | dose: 25.0 mg/kg/injection, schedule: Q01DX009 (ip), vehicle: saline with Tween-80 97 % of control | [9] 100 % of control | dose: 50.0 mg/kg/injection, schedule: Q01DX009 (ip), vehicle: saline with Tween-80 95 % of control | [10] 104 % of control | [11] 87 % of control and 119 % of control | dose: 200.0 mg/kg/injection, schedule: Q04DX002 (ip), vehicle: saline with Tween-80 91 % of control
